# Values of other authors, collected in patent US6288033A, “Treatment of hepatitis B infection with thymosin alpha 1 in combination with lamivudine or in combination with lamivudine and famciclovir” (priority 1998, dated 2001).
# Read-outs that look alike come from different tables or passages of the source. No end group written: not given here.
# How the values were obtained:
# [1] = test system: HBV transfected cell lines
# HBV [2] = details: duck model
# HBV [3] = details: chronically infected chimpanzees
# [4] = up to 2 years, HIV-infected patients
# [5] = not given; remark: listed apart in the source
# [6] = test system: duck hepatitis B viral replication; details: for HBV DNA and DNA polymerase levels: within two days of start, maintained during 21 days; for time viral replication remained suppressed after dosing had stopped: then levels returned to pre-treatment
# HBV [7] = details: 10 day course, 250 mg or 500 mg tid
# HBV [8] = test system: HBV
# anti-HBs = details: previously non-reactive hemodialysis patients, after Heptavax-B vaccination
# [9] = test system: woodchuck hepatitis virus (WHV)
# HBV [10] = test system: HBV; remark: listed apart in the source
# HBV [11] = test system: HBV; remark: listed apart in the source
# HBV [12] = details: 1 microgram/ml
# [13] = North America and European patients
compound,measurement,setting,value
interferon-alpha,"of the HBeAg-clearing patients, clear HBsAg",hepatitis B virus (HBV); Asian patients,approximately 10%
same,patients who clear HBeAg,hepatitis B virus (HBV); Asian patients,15-20%
same,"of the HBeAg-clearing patients, ultimately cleared HBsAg",hepatitis B virus (HBV); [13],25-65%
same,"sustained clearance of hepatitis B e antigen (HBeAg), patients",hepatitis B virus (HBV); [13],30-40%
"Nc1ccn([C@@H]2CS[C@H](CO)O2)c(=O)n1 [lamivudine, 2'3'-dideoxy-3'thiacytidine]",antiviral activity,[1],has been shown
same,antiviral activity,HBV [2],has been shown
same,antiviral activity,HBV [3],has been shown
same,toxicity,[4],without significant toxicity
"CC(=O)OCC(CCn1cnc2cnc(N)nc21)COC(C)=O [famciclovir, diacetyl ester of 6-deoxypenciclovir]","penciclovir concentration in the blood, Cmax",after a 500 mg oral famciclovir dose,21.73 microgram/ml
same,"drug-related adverse effects on clinical laboratory values, blood pressure, heart rates or ECG",single and repeat doses up to 1000 mg three times daily for six days,no evidence of drug-related adverse effects
same,absorption,"volunteers, oral",well absorbed
same,frequency of adverse experiences and laboratory abnormalities versus placebo,"[5]; 11 double-blind and 2 open trials, more than 3000 patients",similar
same,most common adverse experiences,"[5]; human, in vivo","headache, nausea and diarrhea"
same,HBV DNA and DNA polymerase levels,[6]; oral 5 and 25 mg/kg twice a day,undetectable levels
same,time viral replication remained suppressed after dosing had stopped,[6],at least two days
same,evaluable patients with a greater than 90% fall in HBV DNA levels,HBV [7],6 of 11
same,tolerability,HBV [8]; adverse events profile similar to placebo,well tolerated
same,HBV DNA and ALT levels,"HBV [8]; up to 500 mg three times a day for 16 weeks, preliminary data",significant reduction
"Thymosin alpha 1 (Ac-SDAAVDTSSEITTKDLKEKKEVVEEAEN; UniProt P06454 2-29, looked up) [Tα1]",in vivo production of anti-HBs,anti-HBs,enhance
same,treated animals with undetectable WHV DNA levels,"[9]; 10 μg/Kg s.c. twice weekly, 28 weeks, 6 treated animals, end of treatment",4 animals
same,decrease in liver levels of WHV DNA replication intermediates,"[9]; liver biopsy, the 4 animals with undetectable serum WHV DNA",50 to 300 fold
same,change in liver levels of WHV DNA replication intermediates,"[9]; liver biopsy, the other 2 animals",only a small change from the pretreatment levels
same,depression of WHV DNA levels,"[9]; remaining 2 treated animals, end of treatment",100 fold
same,"CR (complete response), number of patients","HBV [10]; 1.6 mg S.C. 2×/week, 6 months, n=49",7 patients
same,CR (%),"HBV [10]; 1.6 mg S.C. 2×/week, 6 months, n=49, p 0.084",14%
same,"patients with sustained loss of HBV DNA with negative HBeAg, number",HBV [10]; during the 1yr study or post study follow up,12 patients
same,patients with sustained loss of HBV DNA with negative HBeAg,"HBV [10]; during the 1yr study or post study follow up, p<0.11 vs placebo",25%
same,DR (%),HBV [10]; n=49,10%
same,"DR (delayed response), number of patients",HBV [10]; n=49,5 patients
same,IR (%),HBV [10]; n=49,0%
same,"IR (incomplete response), number of patients",HBV [10]; n=49,0 patients
same,serum aminotransferase levels,"HBV [11]; conclusion of the study (1 year), 12 patients received TF5 or Tα1 twice weekly for six months",improved significantly
same,"peripheral blood lymphocyte, CD3 and CD4 counts, in vitro production of interferon-gamma over initial values",HBV [11]; in responders to therapy,significant improvements
same,side effects,HBV [11]; in vivo,No side effects were observed
same,"patients who cleared serum HBV DNA, number","HBV [11]; of 12 treated patients, 1 year",Nine
same,patients who cleared serum HBV DNA,"HBV [11]; of 12 treated patients, 1 year, p<0.004 vs placebo",75%
same,"responders with sustained remission (normal ALT, negative serum HBV DNA by PCR and HBeAg)",HBV [11]; of the responders,About 78%
same,safety and efficacy in clearing HBV DNA,"HBV [11]; phase II studies, 1.45 to 1.75 mg (adults) per twice-weekly injection",safe and effective in clearing HBV DNA from the blood
Nc1nc2c(ncn2CCC(CO)CO)c(=O)[nH]1 [penciclovir],"penciclovir concentration in the blood, Cmax",after a 5 mg/kg oral dose of penciclovir alone,approximately 0.14 microgram/ml
same,reduction in HBV DNA,HBV [12]; day 6,50%
same,reduction in HBV DNA,HBV [12]; day 9,90%
same,HBV DNA and DNA polymerase levels,[6]; oral 20 and 100 mg/kg twice a day,undetectable levels
same,time viral replication remained suppressed after dosing had stopped,[6],at least two days
